Series [1] concerns the target T1, 20S Human Erythrocyte Proteasome (HEP) (Homo sapiens, UniProt P20618+P28074).
T1 construct: 20S Human Erythrocyte Proteasome (HEP), purchased from Immatics Biotechnologies Inc; purchased Immatics Biotechnologies Inc., Tübingen, Germany; host or cells: human erythrocytes (natural source)
Kind of series: Chymotrypsin-like activity of 20S Human Erythrocyte Proteasome (HEP), IC50 determination. It counts as biochemical. The note with it: assay of Example C, inhibition of HEP. An outline of the steps:
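20S proteasome at 0.2 μg/mL (about 0.6 nM catalytic sites) in 20 mM Tris with 0.04% SDS, preincubated 15 min at 37° C with inhibitor before Suc-LLVY-AMC (100 μM final). AMC fluorescence read in the linear range; triplicates, IC50 from concentration series.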

In series [2] the target is T2, proteasome in Molt-4 cells (human leukemia) (Homo sapiens, UniProt P20618+P28074).
T2 sequence (P28074 60-263): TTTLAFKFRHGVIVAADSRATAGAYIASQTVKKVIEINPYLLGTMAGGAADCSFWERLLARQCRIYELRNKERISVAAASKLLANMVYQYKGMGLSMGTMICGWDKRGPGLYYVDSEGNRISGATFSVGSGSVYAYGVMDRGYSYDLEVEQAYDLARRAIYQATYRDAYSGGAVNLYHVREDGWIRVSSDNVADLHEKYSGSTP
T2 sequence (P20618 29-241): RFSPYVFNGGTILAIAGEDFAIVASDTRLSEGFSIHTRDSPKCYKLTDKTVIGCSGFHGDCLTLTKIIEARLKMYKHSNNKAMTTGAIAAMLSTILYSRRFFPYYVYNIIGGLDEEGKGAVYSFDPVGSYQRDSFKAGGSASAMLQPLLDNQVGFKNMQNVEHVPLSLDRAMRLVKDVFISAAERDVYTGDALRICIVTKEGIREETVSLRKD
In kind it is cell-based. An outline of the steps: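 Intact Molt-4 cells (6×10^6 cells/mL) in HEPES-buffered saline were preincubated with inhibitor 15 min at 37 °C, then given cell-permeable MeOSuc-FLF-AFC at 25 μM final.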

Where [3] appears, read: assay of Example E, inhibition of MOLT4; read-out: MOLT4 (EC50).

From patent US8546608B2, “Proteasome inhibitors and methods of using the same” (Cephalon, Inc., priority 2003, dated 2013) come the findings set out here.

What is called pIC50 is the IC50 on a negative log10 scale, so that one unit is a factor of ten. Lower therefore signals a large IC50. What is called pEC50 is the negative decadic logarithm of the EC50, by convention in mol/L. The term melting point denotes the temperature, or range, at which the solid turns liquid.

pEC50, pIC50: −log10 of the molar value. Where two headings read alike, the source gives them in different places. Where only a bound is given, the exact number is not on record here.

Compound `CCCCc1ccc(C(=O)N[C@@H](CNS(=O)(=O)c2ccc(F)cc2)C(=O)N[C@@H](CC(C)C)B(O)O)cc1` [E.5.11, Boronic acid, [(1R)-1-[[(2S)-3-[4-fluoro-benzenesulfonamide]-2-[(4-butylbenzoyl)amino]-1-oxopropyl]amino]-3-methylbutyl]] had a melting point of 130 to 132 °C. In series [1], the pIC50 was > 8.00. The pEC50 in series [2] (setting [3]) is > 6.70.
In turn, `CCCCc1ccc(C(=O)N[C@@H](CNS(=O)(=O)c2ccc(N3CCOCC3)nc2)C(=O)N[C@@H](CC(C)C)B(O)O)cc1.Cl` [E.5.27, Boronic acid, [(1R)-1-[[(2S)-3-[6-morpholin-4-yl-pyridine-3-sulfamoyl]-2-[(4-butylbenzoyl)amino]-1-oxopropyl]amino]-3-methylbutyl] hydrochloride] returned a melting point of 182 to 184 °C. In addition, the pIC50 in series [1] was > 8.00. For the same compound, the pEC50 in series [2] (read-out: MOLT4 (EC50); assay of Example E, inhibition of MOLT4) was > 6.70.
In the case of `CCCCc1ccc(C(=O)N[C@@H](CNC(=O)c2ccno2)C(=O)N[C@@H](CC(C)C)B(O)O)cc1` [E.5.25, Boronic acid, [(1R)-1-[[(2S)-3-(2-isoxazolylcarbonylamino)-2-[(4-butylbenzoylamino)]-1-oxopropyl]amino]-3-methylbutyl]], the melting point was 175 to 180 °C. Also, the pIC50 in series [1] is > 8.00. Besides, the negative-log EC50 (pEC50) in series [2] (setting [3]) was > 6.70.
`CCCCc1ccc(C(=O)N[C@@H](CNC(=O)c2ccc(-c3ccccc3)cc2)C(=O)N[C@@H](CC(C)C)B(O)O)cc1` [E.5.33, Boronic acid, [(1R)-1-[[(2S)-3-(4-phenybenzamide]-2-[(4-butylbenzoyl)amino]-1-oxopropyl]amino]-3-methylbutyl]] gave a melting point of 178 to 180 °C. In series [1], the pIC50 was > 8.00. In series [2] (setting [3]), the pEC50 is 5.70 to 6.70.
In turn, `Cc1cc(C(=O)NC[C@H](NC(=O)c2ccc(Oc3ccccc3)cc2)C(=O)N[C@@H](CC(C)C)B(O)O)n(C)n1` [E.5.31] yielded a melting point of 145 to 148 °C. In series [1], the pIC50 is > 8.00. The pEC50 in series [2] (setting [3]) is > 6.70.
`CCCCc1ccc(C(=O)N[C@@H](CNC(=O)c2ccc(S(N)(=O)=O)cc2)C(=O)N[C@@H](CC(C)C)B2O[C@@H]3C[C@@H]4C[C@@H](C4(C)C)[C@]3(C)O2)cc1` [D.24.16]: the melting point was in the range of 145 to 147 °C. Also, the pIC50 in series [1] was > 8.00. Besides, the pEC50 in series [2] (setting [3]) was > 6.70.
For `CCCCc1ccc(C(=O)N[C@@H](CNC(=O)c2ccc(N3CCOCC3)nc2)C(=O)N[C@@H](CC(C)C)B(O)O)cc1` [E.5.28, Boronic acid, [(1R)-1-[[(2S)-3-(6-morpholinonicotinamide]-2-[(4-butylbenzoyl)amino]-1-oxopropyl]amino]-3-methylbutyl]], the melting point is 178 to 180 °C. The pIC50 in series [1] is > 8.00. Besides, the pEC50 in series [2] (setting [3]) was > 6.70.
As to `CC(C)C[C@H](NC(=O)[C@H](CNS(=O)(=O)c1ccc(F)cc1)NC(=O)c1ccc(Oc2ccccc2)cc1)B(O)O` [E.5.30, Boronic acid, [(1R)-1-[[(2S)-3-[4-fluoro-benzenesulfonamide]-2-[(4-phenoxybenzoyl)amino]-1-oxopropyl]amino]-3-methylbutyl]], the melting point lay in the range of 150 to 155 °C. The pIC50 in series [1] is > 8.00. The pEC50 in series [2] (setting [3]) is 5.70 to 6.70.
For the compound `CC(C)C[C@H](NC(=O)[C@H](CNC(=O)Nc1ccccc1)NC(=O)c1ccc(Oc2ccccc2)cc1)B(O)O` [E.5.32, Boronic acid, [(1R)-1-[[(2S)-3-(4-phenylureido]-2-[(4-phenoxybenzoyl)amino]-1-oxopropyl]amino]-3-methylbutyl]], the melting point fell in the range of 155 to 158 °C. In addition, the pIC50 in series [1] was > 8.00. For the same compound, the pEC50 in series [2] (setting [3]) was > 6.70.
In the same order, the values of `CCCCc1ccc(C(=O)N[C@@H](CNC(=O)c2ccc(-c3nn[nH]n3)cc2)C(=O)N[C@@H](CC(C)C)B(O)O)cc1` [E.5.24, Boronic acid, [(1R)-1-[[(2S)-3-[4-(1H-tetrazolyl)-phenylcarbonylamino]-2-[(4-butylbenzoylamino)]-1-oxopropyl]amino]-3-methylbutyl]] are > 250 °C, > 8.00 and 5.70 to 6.70.
On the same counts, the results for `CCCCCCCCCC(=O)N[C@@H](CNC(=O)c1cccs1)C(=O)N[C@@H](CC(C)C)B1O[C@@H]2C[C@@H]3C[C@@H](C3(C)C)[C@]2(C)O1` [D.24.9, Decanamide, N-[(1S)-1-[[[(1R)-1-[(3aS,4S,6S,7aR)-hexahydro-3a,5,5-trimethyl-4,6-methano-1,3,2-benzodioxaborol-2-yl]-3-methylbutyl]amino]carbonyl]-2-[(thien-2-ylcarbonyl)amino]ethyl]-] are 110 °C, > 8.00 and > 6.70.
Take `CC(C)C[C@H](NC(=O)[C@H](CNC(=O)c1ccc(-c2ccccc2)cc1)NC(=O)c1ccc(Oc2ccccc2)cc1)B(O)O` [E.5.34, Boronic acid, [(1R)-1-[[(2S)-3-(4-phenylbenzamide]-2-[(4-phenoxybenzoyl)amino]-1-oxopropyl]amino]-3-methylbutyl]]: the melting point is 158 to 160 °C. In addition, in series [1], the pIC50 was > 8.00. Also, in series [2] (setting [3]), the negative logarithm of the EC50 (pEC50) is > 6.70.
Compound `CCCCCCCCCCCCC(=O)N[C@H](C(=O)N[C@@H](CC(C)C)B(O)O)[C@@H](C)O` [E.3.3, Boronic acid, [(1R)-1-[[(2S,3R)-3-hydroxy-2-[(tridecanoyl)amino]-1-oxobutyl]amino]-3-methylbutyl]] yielded a melting point of 97 to 116 °C. Further, the pIC50 in series [1] was > 8.00. For the same compound, the pEC50 in series [2] (setting [3]) was > 6.70.
In the same order, the values of `CCCCc1ccc(C(=O)N[C@@H](CNC(=O)C#Cc2ccccc2)C(=O)N[C@@H](CC(C)C)B(O)O)cc1` [E.5.35] are 138 to 140 °C, > 8.00 and > 6.70.
As to `CCCCCCCCCC(=O)N[C@@H](CNC(=O)c1cccnc1)C(=O)N[C@@H](CC(C)C)B(O)O` [E.5.22, Boronic acid, [(1R)-1-[[(2S)-3-(nicotinoylamino)-2-(decanoylamino)-1-oxopropyl]amino]-3-methylbutyl]], the melting point was in the range of 136 to 141 °C. The negative-log IC50 (pIC50) in series [1] is > 8.00. Besides, the pEC50 in series [2] (setting [3]) is > 6.70.
On the same counts, the results for `CCCCc1ccc(C(=O)N[C@@H](CNC(=O)c2ccc(S(N)(=O)=O)cc2)C(=O)N[C@@H](CC(C)C)B(O)O)cc1` [E.5.17, Boronic acid, [(1R)-1-[[(2S)-3-[4-sulfamylbenzoylamino]-2-[(4-butylbenzoyl)amino]-1-oxopropyl]amino]-3-methylbutyl]] are 156 to 159 °C, > 8.00 and 5.70 to 6.70.
In the same order, the values of `CC(C)C[C@H](NC(=O)[C@@H](NC(=O)c1ccc(-c2ccccc2)cc1)[C@@H](C)O)B(O)O` [E.3.5, Boronic acid, [(1R)-1-[[(2S,3R)-3-hydroxy-2-[(4-phenylbenzoyl)amino]-1-oxobutyl]amino]-3-methylbutyl]] are 200 to 208 °C, > 8.00 and > 6.70.
